Read-outs that look alike come from different tables or passages of the source.
Columns and labels:
[1] = tested on: Ly1 lymphoma cells; assay: Cell growth sensitivity, Ly1; format: cell-based
[2] = tested on: MDA-MB-231 triple-negative breast cancer cells; parameters: method as in PMID 26081695, PMID 27071719; settings: MDA-MB-231 cells; cited from earlier work
[3] = tested on: U2932 lymphoma cells; assay: U2932 lymphoma model in NSG mice (tumor growth, liver metastasis, overall survival); format: in vivo
Procedure: For the lymphoma model, U2932 cells (5 × 10^6) suspended in PBS-matrigel (v/v, 1:1) were subcutaneously injected into NSG mice on Say 0. Starting on Day 49, NP-G2-044 was given once a day for 5 days every week by gavage at 300 mg kg^−1 per mouse until their death. Starting on Day 49, LY2409881 was given once weekly by intraperitoneal injection at 50 mg kg^−1 per mouse for 8 times. The control solvent was given according to their body weights until their death. […] The primary tumors and livers shown in the figure were dissected on Day 67.

[4] = tested on: U2932 cells; assay: Soft-agar colony formation assay, U2932; format: cell-based; settings: 14 days, dosage-dependent
Procedure: A total of 1 × or 2 ×10^4 cells were suspended in 0.5 mL of 0.3% low melting point agar (Merck KGaA, Darmstadt, Germany) in RPMI-1640 or DMEM containing 10% FBS and control solvent or the inhibitors. This suspension was overlaid on pre-solidified with 0.6% agar in the same medium in 24-well plates as previously described. Normal growth medium containing control solvent or the inhibitors was gently layered over the cultures every 4 days for 14 days. The colonies were stained with 0.1% crystal violet for 1 h at room temperature and counted under a microscope.

[5] = Plasma protein binding assay with mouse plasma; format: in vitro ADME; settings: in the presence of 100% serum
[6] = tested on: phosphorylation of PI3K, AKT, JNK, and STAT6; assay: Western blotting of signaling pathways in U2932 cells; format: cell-based; settings: 30 µM, 16 h
Procedure: We treated U2932 cells with or without NP-G2-044, and measured the potential effects of NP-G2-044 on various pathways critical for lymphoma cell growth.
The lymphoma cells were plated in 10-cm dish. After culture for 24 h, cells were incubated in serum-free medium for 16 h. Cells were then incubated in growth medium with 30 µM NP-G2-044 or dissolvent for 16 h, followed by collecting whole cell lysates or nuclear extracts as previously described.

[7] = tested on: NF-κB nuclear translocation in HT cells; assay: p65 (NF-κB) nuclear translocation, Western blotting, HT; format: cell-based; settings: 30 µM, 16 h
[8] = tested on: BT-20 triple-negative breast cancer cells; assay: Cell growth assay, BT-20; format: cell-based; settings: BT-20 cells in culture, 10% serum
[9] = tested on: MDA-MB-231 human triple-negative breast cancer cells; settings: for inhibition of lung metastasis / IC50, metastasized tumor cells in the lungs: NSG mice, oral; for IC50, metastasized tumor cells in the lungs: six days a week, eight weeks
Procedure: We used two mouse models. In the first orthotopic spontaneous tumor metastasis mouse model, MDA-MB-231 human triple-negative breast cancer cells were injected into the orthotopic site (the mammary gland) of immuno-deficient NSG mice, and then the metastasis to the lung was monitored (Figure 2A–C). Seven days after the implantation of MDA-MB-231 tumor cells, we orally administered the mice with different concentrations of NP-G2-044 either once a day or twice a day for six days a week. After eight weeks, the mice were sacrificed and examined for metastasis in the lungs. […] Lung tumor metastasis was further verified by a histological analysis of lung sections and stained with hematoxylin and eosin (Figure 2C).
MDA-MB-231 cells (subclone LM2) (1 × 10^5) suspended in PBS-matrigel (v/v, 1:1) were injected subcutaneously into the abdominal mammary gland area of female NSG mice (6- to 8-week old from the Jackson Lab) on day 0 as previously described. Starting on Day 7, NP-G2-044 or the control solvent was given once or twice a day for 6 days every week by gavage until the eighth week. On the first day of the ninth week, the mice were killed.
The numbers of metastatic MDA-MB-231 cells in lungs were determined by a clonogenic assay. The lungs were removed from each mouse once sacrificed, and the resulting cells were suspended and plated with a series of dilutions in 10-cm tissue culture dishes in medium containing 2.0 µg/mL puromycin for clonogenic growth. As these MBA-MB-231 tumor cells were stably transfected with the vector pSuper-puro, the metastasized tumor cells formed foci after 14 days, at which time they were fixed with 4% paraformaldehyde and stained with crystal violet staining solution for counting. For combination treatments with chemotherapy, MDA-MB-231 tumor cells (1 × 10^5) suspended in PBS-matrigel (v/v, 1:1) were injected subcutaneously into the abdominal mammary gland area of mice on Day 0. Starting on Day 0, 7, or 14, NP-G2-044 was given to mice once a day for 6 days every week by oral gavage at 300 mg/kg per mouse. A vehicle solvent was given to the control mice once a day for 6 days every week. Starting on day 14, doxorubicin hydrochloride (MilliporeSigma, St. Louis, MO, USA) (2 mg/kg) and cyclophosphamide monohydrate (MilliporeSigma) (60 mg/kg) were given to mice once a week for four weeks. Primary tumors were removed on day 28. The death of the mice was used as the endpoint.

[10] = tested on: HT lymphoma cells; assay: HT lymphoma model in NSG mice (tumor growth, overall survival); format: in vivo; settings: 300 mg/kg gavage once a day 5 days every week from day 28, vs control
Procedure: HT cells (5 × 10^6) suspended in PBS-matrigel (v/v, 1: 1) were subcutaneously injected into NSG mice on day 0. Starting on day 28, NP-G2-044 or the control solvent was given once a day for 5 days every week by gavage at 300 mg kg^−1 per mouse until their death.

[11] = tested on: NCI-H660 human neuroendocrine prostate cancer cells
Procedure: To investigate the effect of NP-G2-044 on the overall survival of mice bearing NCI-H660 tumors, NCI-H660 tumor cells were injected into the prostate of male NSG mice. NCI-H660 tumor-bearing mice were randomized into two groups. In the control group, the vehicle solvent was given (marked as the “control” group) (Figure 3F). In the second group, the mice were treated with NP-G2-044 (5 days per week by an oral gavage). NP-G2-044 treatment started on Day 7.
Human neuroendocrine prostate cancer NCI-H660 cells (1 × 10^5) suspended in PBS were injected into the prostate of male NSG mice (6- to 8-week old from the Jackson Lab) on day 0 as previously described [56]. Briefly, the abdomen was cleaned with iodine solution, and a 1-cm midline incision was created to expose the prostate gland. A 29-gauge needle and a 1-mL disposable syringe were used for the injection of the cell suspension. The needle was inserted into the middle portion of the right anterior lobe, and then was directed towards the cranial portion of the lobe. The abdominal wound was closed in 2 layers with surgical sutures. Starting on Day 7, NP-G2-044 or the control solvent was given once a day for 5 days a week by oral gavage. […] The death of the mice was used as the endpoint.

[12] = tested on: NCI-H660 human neuroendocrine prostate cancer cells; assay: Boyden chamber cell migration assay; format: cell-based; settings: about twenty hours, 10% serum, read-out: IC50, tumor cell migration
Source text: Cells were stained with crystal violet staining solution, and cells on the upper side of the insert were removed with a cotton swab.

[13] = tested on: HT cells; assay: Cell growth assay, HT; settings: HT cells in culture, 4 days
Procedure: We then extended our search to other types of lymphoma cells. […] Both U2932 and Ly10 cells are ABC-subtype DLBCLs, and HT cells are diffuse mixed lymphoma.
For NP-G2-044 dose-dependent studies, 1 × 10^5 Ly10, U2932, or HT cells were seeded in a 12- or 24-well plate on day 0. A total of 1, 3, 10, 30, or 100 μM NP-G2-044 or control solvent was added to the plates. Cells were collected and counted on day 4. For time-dependent studies, 1 × 10^5 Ly10, U2932, or HT cells were seeded in a 12- or 24-well plate on day 0. A total of 30 μM NP-G2-044, 5 μM LY2409881, 30 μM NP-G2-044 plus 5 μM LY2409881, or control solvent was added to the plates. Cells were collected and counted on Days 2 and 4. […] The cell growth index was expressed as the fold changes of cell numbers over the starting cell number. For these assays, the old medium was changed with a fresh medium containing the control solvent or the inhibitors every two days.

[14] = treatment from Day 49, vs control group

## Cc1occc1C(=O)Nc1nn(Cc2ccc(C(F)(F)F)cc2)c2ccccc12 [NP-G2-044]
[1]
  growth sensitivity: insensitive
[2]
  induction of apoptosis: did not induce the apoptosis
[3]; livers dissected on Day 67
  metastasis of implanted lymphoma cells to the liver: blocked the metastasis to the liver
[3]; [14]
  increase of median overall survival: 79%
  overall survival: increased
  primary tumor growth: decreased
[4]
  number of growing colonies: decreased the number of growing colonies
[5]
  fraction unbound: ~0.003
[6]
  phosphorylation of PI3K, AKT kinase, JNK kinase, and STAT6 transcription factor: no effect
[7]
  nuclear translocation of the p65 subunits: also observed
[8]
  growth sensitivity: sensitive
[9]; 100 mg/kg twice a day
  inhibition of lung metastasis: almost completely inhibition
[9]; 300 mg/kg once a day
  inhibition of lung metastasis: almost complete inhibition
[9]; once a day
  IC50, metastasized tumor cells in the lungs: 78.7 mg/kg
[9]; twice a day
  IC50, metastasized tumor cells in the lungs: 29.2 mg/kg
[9]; mouse, in vivo
  tolerability of dosage regimen: well tolerated with no signs of overt toxicity
[10]
  primary tumor growth: decreased
[10]; logrank p = 0.002
  overall survival: increased
[11]; male NSG mice, oral gavage 5 days per week from Day 7, compared with control group, log-rank p < 0.001
  increase of median overall survival: 50%
[11]; mouse, in vivo, po
  tolerability of dosage regimen: well tolerated with no signs of overt toxicity
[12]
  IC50: 3 to 5 µM
[13]
  effect on cell growth: inhibitory effect

Reference: article PMC7466159, “Anti-Metastasis Fascin Inhibitors Decrease the Growth of Specific Subtypes of Cancers” (Cancers, 2020)
